One assay deals with T1, Rat M4 (Rattus norvegicus, UniProt P08485).
T1 construct: expressed in transfected cells; host or cells: CHO-K1 (ATCC), stably expressing M4 and Gqi5
T1 sequence (P08485 1-478): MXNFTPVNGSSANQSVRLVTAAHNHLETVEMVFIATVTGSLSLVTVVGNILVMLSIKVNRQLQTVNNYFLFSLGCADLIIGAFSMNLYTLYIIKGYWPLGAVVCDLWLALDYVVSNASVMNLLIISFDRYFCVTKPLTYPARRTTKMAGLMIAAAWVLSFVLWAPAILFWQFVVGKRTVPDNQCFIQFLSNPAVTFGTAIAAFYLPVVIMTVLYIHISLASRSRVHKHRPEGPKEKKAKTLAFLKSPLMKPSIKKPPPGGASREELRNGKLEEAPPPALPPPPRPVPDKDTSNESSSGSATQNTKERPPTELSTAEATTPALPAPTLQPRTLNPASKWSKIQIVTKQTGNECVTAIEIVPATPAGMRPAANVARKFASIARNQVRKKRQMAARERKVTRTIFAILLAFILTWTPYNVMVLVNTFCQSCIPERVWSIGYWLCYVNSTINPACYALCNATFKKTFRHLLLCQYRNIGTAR
Kind of assay: mAChR M4 cell-based functional calcium flux assay (rat M4/Gqi5/CHO cells). Particulars: for Emin (rat M4): % ACh maximum at 30 μM. As for the experimental part: (§1) Human, rat, or mouse M4. cDNA, along with the chimeric G protein Gqi5, were transfected into Chinese hamster ovary (CHO-K1) cells purchased from the American Type Culture Collection using Lipofectamine2000. M4/Gqi5/CHO cells were grown in Ham's F-12 medium containing 10% heat-inactivated fetal bovine serum (FBS), 20 mM HEPES, 500 μg/mL G418 sulfate, and 200 μg/mL Hygromycin B.
(§2) For high throughput measurement of agonist-evoked increases in intracellular calcium, CHO-K1 cells stably expressing muscarinic receptors were plated in growth medium lacking G418 and hygromycin at 15,000 cells/20 μL/well in Greiner 384-well black-walled, tissue culture (TC)-treated, clear-bottom plates (VWR). Cells were incubated overnight at 37° C. and 5% CO2. The next day, cells were washed using an ELX 405 (BioTek) with assay buffer; the final volume was then aspirated to 20 μL. Next, 20 μL of a 2.3 μM stock of Fluo-4/acetoxymethyl ester (Invitrogen, Carlsbad, CA), prepared as a 2.3 mM stock in DMSO and mixed in a 1:1 ratio with 10% (w/v) Pluronic F-127 and diluted in assay buffer, was added to the wells and the cell plates were incubated for 50 min at 37° C. and 5% CO2. Dye was removed by washing with the ELX 405 and the final volume was aspirated to 20 μL. Compound master plates were formatted in a 10 point concentration-response curve (CRC) format (1:3 dilutions) in 100% DMSO with a starting concentration of 10 or 1 mM using a BRAVO liquid handler (Agilent). Test compound CRCs were then transferred to daughter plates (240 nL) using the Echo acoustic plate reformatter (Labcyte, Sunnyvale, CA) and then diluted into assay buffer (40 μL) to a 2× stock using a Thermo Fisher Combi (Thermo Fisher Scientific, Waltham, MA).
(§3) Calcium flux was measured using the Functional Drug Screening System (FDSS) 6000 or 7000 (Hamamatsu Corporation, Tokyo, Japan) as an increase in the fluorescent static ratio. Compounds were applied to cells (20 μL, 2×) using the automated system of the FDSS at 2 seconds into the protocol and the data were collected at 1 Hz. At 143 s, 10 μL of an EC20 concentration of the muscarinic receptor agonist acetylcholine was added (5×), followed by the addition of 12 μL of an EC80 concentration of acetylcholine at the 268 s time point (5×). Agonist activity was analyzed as a concentration-dependent increase in calcium mobilization upon compound addition. Positive allosteric modulator activity was analyzed as a concentration-dependent increase in the EC20 acetylcholine response. Antagonist activity was analyzed as a concentration-dependent decrease in the EC80 acetylcholine response; for the purposes of the tables herein, an IC50 (inhibitory concentration 50) was calculated as a concentration-dependent decrease of the response elicited by an EC80 concentration of acetylcholine. Concentration-response curves were generated using a four-parameter logistical equation in XLFit curve fitting software (IDBS, Bridgewater, NJ) for Excel (Microsoft, Redmond, WA) or Prism (GraphPad Software, Inc., San Diego, CA) or the Dotmatics software platform (Dotmatics, Bishop's Stortford, UK).
(§4) Compounds were synthesized as described above. Activity (IC50 and Emin) was determined in the mAChR M4 cell-based functional assay as described above and the data are shown in Table 2 and Table 3. The compound number corresponds to the compound numbers used in the examples and Tables 1 and 1.1.

The target in a further assay is T2, Human M4 (Homo sapiens, UniProt P08173).
T2 construct: expressed in transfected cells; host or cells: CHO-K1 (ATCC), stably expressing M4 and Gqi5
T2 sequence (P08173 1-479): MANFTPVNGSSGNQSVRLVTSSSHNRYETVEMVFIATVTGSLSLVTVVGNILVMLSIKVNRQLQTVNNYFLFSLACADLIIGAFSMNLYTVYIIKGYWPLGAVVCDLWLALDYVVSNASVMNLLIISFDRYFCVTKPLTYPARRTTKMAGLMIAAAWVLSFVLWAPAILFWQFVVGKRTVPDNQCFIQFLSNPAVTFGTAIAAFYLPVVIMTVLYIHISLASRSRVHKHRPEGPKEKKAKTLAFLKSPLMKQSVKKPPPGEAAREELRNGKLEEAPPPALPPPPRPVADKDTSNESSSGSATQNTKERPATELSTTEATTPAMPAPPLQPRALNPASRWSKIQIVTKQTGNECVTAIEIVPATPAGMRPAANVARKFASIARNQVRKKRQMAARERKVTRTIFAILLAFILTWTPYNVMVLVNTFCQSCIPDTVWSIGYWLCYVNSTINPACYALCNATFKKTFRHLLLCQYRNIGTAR
As to the kind of experiment: mAChR M4 cell-based functional calcium flux assay (human M4/Gqi5/CHO cells). Particulars: for Emin (human M4): % ACh maximum at 30 μM; for IC50: decrease of the response to an EC80 concentration of acetylcholine. As for the experimental part: as §1, §2, §3, §4

[1] abbreviates: cells printed in μM, decrease of the EC80 acetylcholine response.
Setting [2] is: decrease of the response to an EC80 concentration of acetylcholine.

Consider `Cc1cnn(C)c1-c1ccc(NCC2CC23CCN(CCC2CCCO2)CC3)nn1` (stereo not drawn) [Compound 4, 6-(1,4-dimethyl-1H-pyrazol-5-yl)-N-((6-(2-(tetrahydrofuran-2-yl)ethyl)-6-azaspiro[2.5]octan-1-yl)methyl)pyridazin-3-amine], for which, at Rat M4, the “Emin (rat M4)” value is recorded as 26.5%. In addition, at Rat M4 (setting [1]), the IC50 is more than 10 µM.
On to `Cc1nn(C)cc1-c1ccc(NCC2CC23CCN(CC2CC4C=CC2C4)CC3)nn1` (stereo not drawn) [Compound 9, N-[[6-(5-bicyclo[2.2.1]hept-2-enylmethyl)-6-azaspiro[2.5]octan-2-yl]methyl]-6-(1,3-dimethylpyrazol-4-yl)pyridazin-3-amine], for which the “Emin (rat M4)” value on Rat M4 was determined as 3.98%. Also, the IC50 at Rat M4 (setting [2]) is 0.012 µM.
Regarding `Cc1nn(C)cc1-c1ccc(NCC2CC23CCN(CC(C)C(C)(C)C)CC3)nn1` (stereo not drawn) [Compound 10, 6-(1,3-dimethylpyrazol-4-yl)-N-[[6-(2,3,3-trimethylbutyl)-6-azaspiro[2.5]octan-2-yl]methyl]pyridazin-3-amine], the “Emin (rat M4)” value on Rat M4 was 3.57%. In addition, the concentration for half-maximal inhibition (IC50) on Rat M4 (setting [2]) is 0.0478 µM.
For `Cc1cnn(C)c1-c1ccc(NCC2CC23CCN(CC2CCOCC2)CC3)nn1` (stereo not drawn) [Compound 74, 6-(2,4-dimethylpyrazol-3-yl)-N-[[6-(tetrahydropyran-4-ylmethyl)-6-azaspiro[2.5]octan-2-yl]methyl]pyridazin-3-amine], the “Emin (rat M4)” value at Rat M4 turned out to be 29.9%. For the same compound, the IC50 at Rat M4 (setting [1]) is more than 10 µM.
Take `CC(C)(C)CCN1CCC2(CC1)CC2COc1ccc(-c2cc(F)ccc2Cl)nn1` (stereo not drawn) [Compound 77, 1-(((6-(2-chloro-5-fluorophenyl)pyridazin-3-yl)oxy)methyl)-6-(3,3-dimethylbutyl)-6-azaspiro[2.5]octane]: the “Emin (rat M4)” value on Rat M4 was 3%. Besides, on Rat M4 (setting [2]), the IC50 was 0.288 µM.
For `c1cc(N2CCOCC2)nnc1NCC1CC12CCN(CC1CCOCC1)CC2` (stereo not drawn) [Compound 85, 6-morpholino-N-[[6-(tetrahydropyran-4-ylmethyl)-6-azaspiro[2.5]octan-2-yl]methyl]pyridazin-3-amine], at Human M4, the “Emin (human M4)” value is listed as 10% and the IC50 is 1200 nM.
Take `Cc1nn(C)cc1-c1nnc(NCC2CC23CCN(CC2CCOCC2)CC3)c2ccccc12` (stereo not drawn) [Compound 93, 4-(1,3-dimethylpyrazol-4-yl)-N-[[6-(tetrahydropyran-4-ylmethyl)-6-azaspiro[2.5]octan-2-yl]methyl]phthalazin-1-amine]: on Human M4, the “Emin (human M4)” value is 9% and the IC50 turned out to be 4.61 nM.
The like results for `Cc1nn(C)cc1-c1nnc(NCC2CC23CCN(CC2CCCCC2)CC3)c2ccccc12` (stereo not drawn) [Compound 94, N-[[6-(cyclohexylmethyl)-6-azaspiro[2.5]octan-2-yl]methyl]-4-(1,3-dimethylpyrazol-4-yl)phthalazin-1-amine] were, in that order, 5% and 16.1 nM.
Turning to `Cc1nn(C)cc1-c1nnc(NCC2CC23CCN(CCC(C)(C)C)CC3)c2ccccc12` (stereo not drawn) [Compound 95, N-[[6-(3,3-dimethylbutyl)-6-azaspiro[2.5]octan-2-yl]methyl]-4-(1,3-dimethylpyrazol-4-yl)phthalazin-1-amine], on Human M4, the “Emin (human M4)” value was 5% and the IC50 was 2.55 nM.
For `Cc1nn(C)cc1-c1nnc(NCC2CC23CCN(CC2CC4C=CC2C4)CC3)c2ccccc12` (stereo not drawn) [Compound 96, N-[[6-(5-bicyclo[2.2.1]hept-2-enylmethyl)-6-azaspiro[2.5]octan-2-yl]methyl]-4-(1,3-dimethylpyrazol-4-yl)phthalazin-1-amine], in that order: 5% and 2.96 nM.
As to `Fc1cccc(CN2CCC3(CC2)CC3CNc2ccc(-c3cc(F)ccc3Cl)nn2)c1` (stereo not drawn) [Compound 97, 6-(2-chloro-5-fluoro-phenyl)-N-[[6-[(3-fluorophenyl)methyl]-6-azaspiro[2.5]octan-2-yl]methyl]pyridazin-3-amine], on Human M4, the “Emin (human M4)” value is given as 3% and the IC50 was 83.3 nM.
For `N#Cc1ccccc1CN1CCC2(CC1)CC2CNc1ccc(-c2cc(F)ccc2Cl)nn1` (stereo not drawn) [Compound 98, 2-[[2-[[[6-(2-chloro-5-fluoro-phenyl)pyridazin-3-yl]amino]methyl]-6-azaspiro[2.5]octan-6-yl]methyl]benzonitrile], in that order: 5% and 524 nM.
As for `Fc1ccc(CN2CCC3(CC2)CC3CNc2ccc(-c3cc(F)ccc3Cl)nn2)cc1` (stereo not drawn) [Compound 99, 6-(2-chloro-5-fluoro-phenyl)-N-[[6-[(4-fluorophenyl)methyl]-6-azaspiro[2.5]octan-2-yl]methyl]pyridazin-3-amine], at Human M4, the “Emin (human M4)” value was determined as 3% and the IC50 turned out to be 88.2 nM.
On to `Fc1ccc(Cl)c(-c2ccc(NCC3CC34CCN(Cc3ccccc3F)CC4)nn2)c1` (stereo not drawn) [Compound 100, 6-(2-chloro-5-fluoro-phenyl)-N-[[6-[(2-fluorophenyl)methyl]-6-azaspiro[2.5]octan-2-yl]methyl]pyridazin-3-amine], for which, at Human M4, the “Emin (human M4)” value is listed as 2% and the IC50 is 88.2 nM.
The like results for `Fc1ccc(Cl)c(-c2ccc(NCC3CC34CCN(Cc3ccccc3)CC4)nn2)c1` (stereo not drawn) [Compound 101, N-[(6-benzyl-6-azaspiro[2.5]octan-2-yl)methyl]-6-(2-chloro-5-fluoro-phenyl)pyridazin-3-amine] were, in that order, 3% and 69.2 nM.
With `Fc1ccc(Cl)c(-c2ccc(NC[C@@H]3CC34CCN(Cc3ccccc3)CC4)nn2)c1` [Compound 112, N-[[(2R)-6-benzyl-6-azaspiro[2.5]octan-2-yl]methyl]-6-(2-chloro-5-fluoro-phenyl)pyridazin-3-amine], at Human M4, the “Emin (human M4)” value turned out to be 2% and the IC50 was determined as 127 nM.
The like results for `Fc1ccc(Cl)c(-c2ccc(NC[C@@H]3CC34CCN(Cc3ccccn3)CC4)nn2)c1` [Compound 113, 6-(2-chloro-5-fluoro-phenyl)-N-[[(2R)-6-(2-pyridylmethyl)-6-azaspiro[2.5]octan-2-yl]methyl]pyridazin-3-amine] were, in that order, 2% and 88.3 nM.
The like results for `CC(=O)Nc1ccc(-c2ccc(NC[C@H]3CC34CCN(CC3CCCCC3)CC4)nn2)cc1` [Compound 125, N-[4-[6-[[(2S)-6-(cyclohexylmethyl)-6-azaspiro[2.5]octan-2-yl]methylamino]pyridazin-3-yl]phenyl]acetamide] were, in that order, 4% and 112 nM.

The record behind these values is patent US12600726B2, “Antagonists of the muscarinic acetylcholine receptor M4” (Vanderbilt University, priority 2017, dated 2026).
